Results on one molecule are retold here after US10869844B2, “Methods for the treatment of depression” (Janssen Pharmaceutica NV, priority 2014, dated 2020).

Like-named read-outs stand apart in the source and are kept apart here.

Assay [1] concerns adult subjects with TRD. It counts as in vivo, human. Particulars: for Non-responders % / Non-responders N / Responders % (MADRS total score reduction >50% TRD2001, ≥50% TRD2002) / Responders N (MADRS total score reduction >50% TRD2001, ≥50% TRD2002): after first infusion (Day 2 TRD2001, Day 3 or 4 TRD2002). The protocol:
Association between changes in MADRS total score from baseline and the SNP rs6265 after a single dose was evaluated in placebo subjects and active subjects using an ANCOVA model under a dominant model with baseline MADRS total score, and grouped genotype (Val/Val or Met carrier). A statistically significant result was found in active subjects (p=0.02).
Association between the % responders and the SNP rs6265 after a single dose was evaluated in placebo subjects and active subjects using a logistic regression model under a dominant model with baseline MADRS total score and grouped genotype (Val/Val or Met carrier). A statistically significant result was found in active subjects (p=0.03).
Association between the % remitters and the SNP rs6265 after a single dose was evaluated in placebo subjects and as well as in active subjects using a logistic regression model under a dominant model with baseline MADRS total score and grouped genotype (Val/Val or Met carrier).

A further assay deals with Met/Met knocked in mice. Particulars: LIU, Biol. Psychiatry 2012; cited from earlier work.
Assay [2] concerns patients with major depressive disorders. Particulars: cited from earlier work.
The subject of assay [3] is adult subjects with TRD. Particulars: for Day 17 responders who maintained response status up to Day 35, % / Day 17 responders who maintained response status up to Day 35, number: all subjects.

Consider `CNC1(c2ccccc2Cl)CCCCC1=O` (racemic) [Ketamine, ketamine], for which, in the assay with adult subjects with TRD [1] (Met carriers), the Non-responders % came out at 92.3%; the “Non-responders N” value is on record as 12; the “Responders % (MADRS total score reduction >50% TRD2001, ≥50% TRD2002)” value stood at 7.7%; the “Responders N (MADRS total score reduction >50% TRD2001, ≥50% TRD2002)” value was 1. Moreover, in the assay with adult subjects with TRD [1] (Val/Val), the Non-responders % is 71.4%; the “Non-responders N” value amounted to 15; the “Responders % (MADRS total score reduction >50% TRD2001, ≥50% TRD2002)” value amounted to 28.6%; the “Responders N (MADRS total score reduction >50% TRD2001, ≥50% TRD2002)” value is 6. In addition, the “Clinical response associated with Met allele of Val66Met rs6265” value in the assay on adult subjects with TRD [1] (acute, single dose administration) was “smaller clinical response”. In addition, in the assay with Met/Met knocked in mice, the “Antidepressant-like response, Met/Met knocked in mice compared to Val/Val mice” value is reported as “blunted antidepressant-like response” and the “Synaptogenesis, Met/Met knocked in mice compared to Val/Val mice” value is on record as “reduced synaptogenesis”. In addition, the “Likelihood of antidepressant response, Val/Val BDNF allele at rs6265 vs Met carriers” value in assay [2] (MDD patients, LAJE, Biol. Psychiatry 2012) is on record as “more likely to exhibit antidepressant response to ketamine than Met carriers”. The “Onset of rapid antidepressant effect” value in assay [2] (patients with major depressive disorders) is reported as “within two hours”. In addition, in the assay on adult subjects with TRD [3] (Met carriers (of 7)), the “Day 17 responders who maintained response status up to Day 35, %” value was 42.9% and the “Day 17 responders who maintained response status up to Day 35, number” value is 3. Further, in the assay with adult subjects with TRD [3] (Val/Val (of 12)), the “Day 17 responders who maintained response status up to Day 35, %” value amounted to 91.7% and the “Day 17 responders who maintained response status up to Day 35, number” value was 11. Moreover, the “Responders on Day 17, number” value with adult subjects with TRD [3] (among all subjects (Val/Val and Met carriers)) is listed as 19. Besides, in the assay on adult subjects with TRD [3] (among all subjects, Met carriers), the “Responders on Day 17, number” value is 7. The “Responders on Day 17, number” value with adult subjects with TRD [3] (among all subjects, Val/Val) came out at 12.
